Counter-ions that a name gives are not always drawn.
These compounds were tested against T1, MAPKAPK2 enzyme (HIS-MK2, Invitrogen PV4019) (Homo sapiens, UniProt P49137) (assay: Alternative MAPKAPK2 assay (Caliper microfluidic mobility shift, HSP27-peptide)). Conditions: HIS-MK2 0.013 nM, ATP 10 μM, 60 min at 30° C.
T1 construct: His; purchased Invitrogen PV4019
Type: biochemical

T1 sequence (P49137 whole entry): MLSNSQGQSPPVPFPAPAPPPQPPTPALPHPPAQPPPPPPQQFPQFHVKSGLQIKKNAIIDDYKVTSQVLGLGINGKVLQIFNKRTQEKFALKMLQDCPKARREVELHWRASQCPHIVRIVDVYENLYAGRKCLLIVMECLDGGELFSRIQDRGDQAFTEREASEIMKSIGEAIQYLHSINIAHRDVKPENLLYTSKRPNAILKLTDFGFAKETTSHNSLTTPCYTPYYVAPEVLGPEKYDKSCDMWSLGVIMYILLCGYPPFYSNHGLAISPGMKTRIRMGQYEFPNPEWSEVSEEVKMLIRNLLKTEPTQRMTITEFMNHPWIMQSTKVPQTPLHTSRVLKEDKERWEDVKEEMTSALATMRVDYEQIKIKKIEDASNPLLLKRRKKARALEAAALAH

| Compound | IC50 [nM] |
| --- | --- |
| Cc1ccc(-c2cc3c(cn2)CCc2c-3[nH]c3c2C(=O)NCC32CC2)cn1 [Example 111, 2-(1-Aminomethyl-cyclopropyl)-8-(6-methyl-pyridin-3-yl)-4,5-dihydro-1H-pyrrolo[2,3-f]isoquinoline-3-carboxylic acid lactam] | 5 |
| COc1ccc(-c2cc3c(cn2)CCc2c-3[nH]c3c2C(=O)NC2(CC2)C32CC2)cn1 [Example 199, 2-(1′-Amino-bicyclopropyl-1-yl)-8-[6-methoxy-pyridin-3-yl]-4,5-dihydro-1H-pyrrolo[2,3-f]isoquinoline-3-carboxylic acid lactam] | 23 |
| N#Cc1ccc(-c2cc3c(cn2)CCc2c-3[nH]c3c2C(=O)NC2(CC2)C3)cn1 [Example 63, 2-(1-Amino-cyclopropylmethyl)-8-(6-cyano-pyridin-3-yl)-4,5-dihydro-1H-pyrrolo[2,3-f]isoquinoline-3-carboxylic acid lactam] | 89 |
| CC(C)Oc1ccc(-c2cc3c(cn2)CCc2c-3[nH]c3c2C(=O)NC2(CC2)C3)cn1 [Example 235, 2-(1-Amino-cyclopropylmethyl)-8-(6-isopropoxy-pyridin-3-yl)-4,5-dihydro-1H-pyrrolo[2,3-f]isoquinoline-3-carboxylic acid lactam] | 65 |
| COc1ccc(-c2cc3c(cn2)CCc2c-3[nH]c3c2C(=O)NCC32CNC2)cc1 [Example 165, 2-(3-Aminomethyl-azetidin-3-yl)-8-(4-methoxy-phenyl)-4,5-dihydro-1H-pyrrolo[2,3-f]isoquinoline-3-carboxylic acid lactam hydrochloride] | < 3 |
| COc1cc(OC)cc(-c2cc3c(cn2)CCc2c4c(n(C)c2-3)CC2(CNC2)NC4=O)c1 [Example 143, 2-(3-Amino-azetidin-3-ylmethyl)-8-(3,5-dimethoxy-phenyl)-1-methyl-4,5-dihydro-1H-pyrrolo[2,3-f]isoquinoline-3-carboxylic acid lactam hydrochloride] | 69 |
| O=C1NC2CCC2c2[nH]c3c(c21)CCc1cnc(-c2cccc(F)c2)cc1-3 (single isomer, unassigned; (+)) [Example 51, (+)-2-(2-Amino-cyclobutyl)-8-(3-fluoro-phenyl)-4,5-dihydro-1H-pyrrolo[2,3-f]isoquinoline-3-carboxylic acid lactam] | 28 |
| O=C1NC2(CC2)Cc2[nH]c3c(c21)CCc1cnc(-c2ccc(CN4CCCCC4)cc2)cc1-3 [Example 65, 2-(1-Amino-cyclopropylmethyl)-8-(4-piperidin-1-ylmethyl-phenyl)-4,5-dihydro-1H-pyrrolo[2,3-f]isoquinoline-3-carboxylic acid lactam] | 46 |
| COc1ccc(-c2cc3c(cn2)CCc2c4c(n(C)c2-3)C2(CNC4=O)CN(C)C2)cc1 [Example 164, 2-(3-Aminomethyl-1-methyl-azetidin-3-yl)-8-(4-methoxy-phenyl)-1-methyl-4,5-dihydro-1H-pyrrolo[2,3-f]isoquinoline-3-carboxylic acid lactam] | 22 |
| CC(C)(N)CCc1ccc(-c2cc3c(cn2)CCc2c-3[nH]c3c2C(=O)NC2(CC2)C3)cc1 [Example 78, 2-(1-Amino-cyclopropylmethyl)-8-[4-(3-amino-3-methyl-butyl)-phenyl]-4,5-dihydro-1H-pyrrolo[2,3-f]isoquinoline-3-carboxylic acid lactam] | 18 |
| CC(C)N1CCN(c2ccc(-c3cc4c(cn3)CCc3c-4[nH]c4c3C(=O)NCC43CC3)cc2C#N)CC1 [Example 314, 2-(4-Isopropyl-piperazin-1-yl)-10-spirocyclopropyl-5-(7-oxo-6,7,8,9,10,11-hexahydro-5H-3,8,11-triaza-benzo[a]fluoren-2-yl)-benzonitrile] | 12 |
| N#Cc1cc(-c2cc3c(cn2)CCc2c-3[nH]c3c2C(=O)NCC32CC2)ccc1F [Example 115] | 36 |
| Cn1c2c(c3c1-c1cc(-c4cccc(N5CCOCC5)c4)ncc1CC3)C(=O)NC1(CNC1)C2 [Example 146, 2-(3-Amino-azetidin-3-ylmethyl)-8-(3-morpholin-4-yl-phenyl)-1-methyl-4,5-dihydro-1H-pyrrolo[2,3-f]isoquinoline-3-carboxylic acid lactam hydrochloride] | 45 |
| CN(C)c1ccc(-c2cc3c(cn2)CCc2c-3[nH]c3c2C(=O)NC2(CC2)C32CC2)cn1 [Example 197, 2-(1′-Amino-bicyclopropyl-1-yl)-8-(6-dimethylamino-pyridin-3-yl)-4,5-dihydro-1H-pyrrolo[2,3-f]isoquinoline-3-carboxylic acid lactam] | 38 |
| O=C1NCC2(CC2)c2[nH]c3c(c21)CCc1cnc(-c2cncc(N4CCOCC4)c2)cc1-3 [Example 302, 2-(5-Morpholin-4-yl-pyridin-3-yl)-10-spirocyclopropyl-5,6,8,9,10,11-hexahydro-3,8,11-triaza-benzo[a]fluoren-7-one] | 22 |
| COc1ccc(-c2ncc3c(n2)-c2c(c4c(n2C)CC2(CNC2)NC4=O)CC3)cc1 [Example 131, 2-(3-Amino-azetidin-3-ylmethyl)-8-(4-methoxy-phenyl)-1-methyl-4,5-dihydro-1H-1,7,9-triaza-cyclopenta[a]naphthalene-3-carboxylic acid lactam hydrochloride] | 6 |
| COc1ccc(-c2cc3c(cn2)CCc2c4c(n(C)c2-3)CC2(CN(C)C2)NC4=O)cn1 [Example 142, 2-(3-Amino-1-methyl-azetidin-3-ylmethyl)-8-(6-methoxy-pyridin-3-yl)-1-methyl-4,5-dihydro-1H-pyrrolo[2,3-f]isoquinoline-3-carboxylic acid lactam] | 34 |
| CC(C)(O)CCc1ccc(-c2cc3c(cn2)CCc2c-3[nH]c3c2C(=O)NCC32CC2)cc1 [Example 126, 2-(1-Aminomethyl-cyclopropyl)-8-[4-(3-hydroxy-3-methyl-butyl)-phenyl]-4,5-dihydro-1H-pyrrolo[2,3-f]isoquinoline-3-carboxylic acid lactam] | 34 |

Continued, values first:

| IC50 [nM] | Compound |
| --- | --- |
| 29 | CN1CCN(c2ccc(-c3cc4c(cn3)CCc3c-4[nH]c4c3C(=O)NC3(CC3)C43CC3)cc2)CC1 [Example 221, 2-(1′-Amino-bicyclopropyl-1-yl)-8-[4-(4-methyl-piperazin-1-yl)-phenyl]-4,5-dihydro-1H-pyrrolo[2,3-f]isoquinoline-3-carboxylic acid lactam] |
| < 3 | CN1CC2(C1)c1[nH]c3c(c1C(=O)NC21CC1)CCc1cnc(-c2cccc(C(=O)NCc4ccccc4)c2)cc1-3 [Example 226, 2-[3-(1-Amino-cyclopropyl)-1-methyl-azetidin-3-yl]-8-(3-benzylcarbamoyl-phenyl)-4,5-dihydro-1H-pyrrolo[2,3-f]isoquinoline-3-carboxylic acid lactam] |
| 98 | Nc1ccc(-c2cc3c(cn2)CCc2c-3[nH]c3c2C(=O)NC2(CCC2)C3)cn1 [Example 101, 2-(1-Amino-cyclobutylmethyl)-8-(6-amino-pyridin-3-yl)-4,5-dihydro-1H-pyrrolo[2,3-f]isoquinoline-3-carboxylic acid lactam] |
| 23 | N#Cc1cncc(-c2cc3c(cn2)CCc2c-3[nH]c3c2C(=O)NCC32CC2)c1 [Example 113, 2-(1-Aminomethyl-cyclopropyl)-8-(5-cyano-pyridin-3-yl)-4,5-dihydro-1H-pyrrolo[2,3-f]isoquinoline-3-carboxylic acid lactam] |
| 15 | Cn1c2c(c3c1-c1cc(-c4ccc5c(c4)OCCO5)ncc1CC3)C(=O)NC1(CNC1)C2 [Example 148, 2-(3-Amino-azetidin-3-ylmethyl)-8-(2,3-dihydro-benzo[1,4]dioxin-6-yl)-1-methyl-4,5-dihydro-1H-pyrrolo[2,3-f]isoquinoline-3-carboxylic acid lactam hydrochloride] |
| 20 | Cn1c2c(c3c1-c1cc(-c4ccc(F)nc4)ncc1CC3)C(=O)NC1(CNC1)C2 [Example 134, 2-(3-Amino-azetidin-3-ylmethyl)-8-(6-fluoro-pyridin-3-yl)-1-methyl-4,5-dihydro-1H-pyrrolo[2,3-f]isoquinoline-3-carboxylic acid lactam hydrochloride] |
| 41 | O=C1NCC2(CC2)c2[nH]c3c(c21)CCc1cnc(-c2ccc4c(c2)OCCO4)cc1-3 [Example 114] |
| 6 | Cn1c2c(c3c1C1(CNC1)CNC3=O)CCc1cnc(-c3cccc(Cl)c3)cc1-2 [Example 189, 2-[3-Aminomethyl-azetidin-3-yl]-8-(3-chloro-phenyl)-1-methyl-4,5-dihydro-1H-pyrrolo[2,3-f]isoquinoline-3-carboxylic acid lactam hydrochloride] |
| < 3 | O=C1NCC2(CNC2)c2[nH]c3c(c21)CCc1cnc(-c2ccc(Oc4ccc(F)cc4F)nc2)cc1-3 [Example 154, 2-(3-Aminomethyl-azetidin-3-yl)-8-[6-(2,4-difluoro-phenoxy)-pyridin-3-yl]-4,5-dihydro-1H-pyrrolo[2,3-f]isoquinoline-3-carboxylic acid lactam] |
| 25 | Cn1c2c(c3c1-c1nc(-c4cccc(C#N)c4)ncc1CC3)C(=O)NC1(CNC1)C2 [Example 287, 2-(3-Amino-azetidin-3-ylmethyl)-8-(3-cyano-phenyl)-1-methyl-4,5-dihydro-1H-1,7,9-triaza-cyclopenta[a]naphthalene-3-carboxylic acid lactam hydrochloride] |
| 37 | CC(C)Oc1ccc(-c2cc3c(cn2)CCc2c-3[nH]c3c2C(=O)NC2(CC2)C32CC2)cn1 [Example 200, 2-(1′-Amino-bicyclopropyl-1-yl)-8-[6-isopropoxy-pyridin-3-yl]-4,5-dihydro-1H-pyrrolo[2,3-f]isoquinoline-3-carboxylic acid lactam] |
| 34 | Cn1c2c(c3c1C1(CNC1)CNC3=O)CCc1cnc(-c3cccc(F)c3)nc1-2 [Example 203, 2-(3-Aminomethyl-azetidin-3-yl)-8-(3-fluoro-phenyl)-1-methyl-4,5-dihydro-1H-1,7,9-triaza-cyclopenta[a]naphthalene-3-carboxylic acid lactam hydrochloride] |
| 45 | CN1CCOc2cc(-c3cc4c(cn3)CCc3c-4[nH]c4c3C(=O)NCC43CC3)ccc21 [Example 130, 2-(1-Aminomethyl-cyclopropyl)-8-(4-methyl-3,4-dihydro-2H-benzo[1,4]oxazin-7-yl)-4,5-dihydro-1H-pyrrolo[2,3-f]isoquinoline-3-carboxylic acid lactam] |

From patent US7838674B2, “Tetracyclic lactame derivatives” (Novartis AG, priority 2007, dated 2010)
